Test results reported in patent publication US20150018369A1 (priority 2012, published 2015).
Like-named read-outs stand apart in the source and are kept apart here.

Assays:
[1] = tested on: T98 g cells; assay: Cell viability assay (WST-1), SAR of AI compounds at inducing cell death; type: cell-based, human
Protocol: (§1) Cells were plated media supplemented with 10% serum in 96-well plates (10^4 cells per wellI; 0.1 ml per well). Once they reached ˜70% confluence, they were rinsed with PBS and kept for an additional 24 his in media supplemented with 1% serum, at which time drugs or vehicle (DMSO, 0.1%, prepared in 10 μl serum-free media) were directly added to each well. After 3 days, cell viability was assessed using the Cell Proliferation Reagent WST-1 (Roche, Indianapolis, Ind.). Briefly, WST-1 reagent (10 μl) was added to each well for 3 hrs at 37° C. with 5% CO2 and WST-1 products were read at 450 nm using Packard SpectraCount™.
Because the strongest toxic effect of WIN55212-2 (ST-1) was measured in T98 g cells, these cells are used as readout to study the structure activity relationship (SAR) of AI compounds at inducing cell death. Table 2 provides the chemical structure, potency and efficacy of several AI compounds.

[2] = tested on: AI receptors; assay: GTPγS binding in HEK293 cell homogenates; type: biochemical, human
Source text: When comparing the overall amino acid sequence of GPR124 to that of CB1 and CB2 receptors no significant homology was found. However, when focusing the comparison to the amino acid sequence encoding for the third transmembrane domains of GPR124 and CB2 receptors, 84% homology was found (FIG. 5a). […] Therefore, it is likely that ST-1, ST-11, and other AI compounds interact directly with the third transmembrane domain of GPR124. To determine the signaling mechanism of AI receptors, effect of ST-11 in HEX293 cells, which express GPR124 endogenously and commonly used to study GPCR pharmacology and signaling pathway, was tested.

[3] = biological target: CB2 (Homo sapiens, UniProt P34972); assay: HA-tagged receptor internalization, CB2; type: cell-based; set-up: HA; expressed in transfected cells; conditions: FIG. 2b
CB2, sequence (P34972 whole entry): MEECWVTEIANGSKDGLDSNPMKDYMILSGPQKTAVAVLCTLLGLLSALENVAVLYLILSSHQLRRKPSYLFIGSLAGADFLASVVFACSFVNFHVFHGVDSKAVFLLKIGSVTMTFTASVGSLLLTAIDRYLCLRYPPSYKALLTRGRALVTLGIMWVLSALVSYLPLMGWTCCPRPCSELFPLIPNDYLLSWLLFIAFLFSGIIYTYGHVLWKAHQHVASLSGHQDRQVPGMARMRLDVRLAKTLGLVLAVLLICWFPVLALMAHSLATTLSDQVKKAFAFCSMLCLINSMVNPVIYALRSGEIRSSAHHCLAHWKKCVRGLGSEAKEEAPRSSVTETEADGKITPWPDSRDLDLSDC
Source text: (§2) FIGS. 2d and 2e illustrate the co-docking of CP55940 and either WIN55212-2 (d) or ST-11 (e) in hCB1 receptors.

[4] = tested on: T98 g, MDA231 and sknmc cells; assay: Killing of cell lines lacking CB1/CB2 (sensitivity profile); type: cell-based, human; conditions: for potencies and efficacies at killing these cells: T98 g, MDA231 and sknmc cells
Protocol: as §1
Based on this evidence, it was determined if WIN55212-2 differentially kills T98 g, MDA231 and […] cells, thus providing an index of AI receptor functionality in these cells. Also tested is Δ^9-THC (classic cannabinoid) and CP55940 (non-classical cannabinoid).

[5] = biological target: T1, human CB1 receptors (Homo sapiens, UniProt P21554); assay: HA-tagged receptor internalization, CB1; type: cell-based; conditions: FIG. 2a
T1 construct: HA; expressed in transfected cells
T1 sequence (P21554 whole entry): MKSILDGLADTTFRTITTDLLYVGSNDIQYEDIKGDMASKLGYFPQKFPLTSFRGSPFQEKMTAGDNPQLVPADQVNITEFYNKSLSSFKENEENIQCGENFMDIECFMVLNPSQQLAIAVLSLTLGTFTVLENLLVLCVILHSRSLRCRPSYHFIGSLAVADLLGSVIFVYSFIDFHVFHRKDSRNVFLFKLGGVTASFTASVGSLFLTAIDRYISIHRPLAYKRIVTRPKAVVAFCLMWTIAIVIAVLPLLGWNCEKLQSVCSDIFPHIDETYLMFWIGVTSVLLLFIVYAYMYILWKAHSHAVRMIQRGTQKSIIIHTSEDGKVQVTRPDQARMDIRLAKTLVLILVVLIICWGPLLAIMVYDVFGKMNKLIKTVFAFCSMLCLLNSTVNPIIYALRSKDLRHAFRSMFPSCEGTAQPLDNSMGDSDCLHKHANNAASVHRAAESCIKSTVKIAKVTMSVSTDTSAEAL
Source text: as §2

[6] = tested on: protein expressed by NG108-15 cells; conditions: cited from earlier work
[7] = tested on: hippocampal slices from CB1-/- mice; conditions: blocked by capsazepine; cited from earlier work
[8] = tested on: homogenates from CB1-/- mice cerebellum; conditions: insensitive to SR144528; cited from earlier work
[9] = T98 g cells, cell death, viability after 3 days
[10] = Homo sapiens, T98G, 72 h, T98 g cells, cell death, viability after 3 days, read-out: EC50

## O=C(c1ccccc1)c1cn(CC(=O)N2CCOCC2)c2ccccc12 [ST-46]
[1]; [9]
  EC50 (μM): inactive

## COc1ccc2c3cc(C(=O)N4CCCCC4)ccc3n(CC3CCCCC3)c2c1 [ST-36]
[1]; Homo sapiens, T98G, 72 h
  EC50: 3.7 µM

## Cc1ccc(C(=O)c2c(C)n(CCN3CCOCC3)c3cc(Cl)ccc23)c2ccccc12 [ST-24]
[1]; Homo sapiens, T98G, 72 h
  EC50: 1.4 µM

## Cc1ccc(C(=O)c2c3n(c4ccccc24)CCCC3)c2ccccc12 [ST-25]
[2]
  GTPγS binding: increase GTP[…]S binding
[1]; Homo sapiens, T98G, 72 h
  EC50: 0.634 µM

## CCn1c(C)c(C(=O)c2ccc(OC)cc2)c2ccccc21 [ST-47]
[1]; Homo sapiens, T98G, 72 h
  EC50: ~20 µM

## CCCn1cc(C(=O)c2ccc(C)c3ccccc23)c2ccccc21 [ST-14]
[1]; [9]
  EC50 (μM): inactive

## CCCn1c(C)c(C(=O)c2ccc(C)c3ccccc23)c2ccccc21 [ST-18]
[1]; Homo sapiens, T98G, 72 h
  EC50: 1.9 µM

## Cc1ccc(C(=O)c2c(C)n(C)c3ccccc23)c2ccccc12 [ST-10]
[1]; Homo sapiens, T98G, 72 h
  EC50: 2.9 µM

## CCn1c2ccccc2c2cc(C(=O)c3ccc(C)c4ccccc34)ccc21 [ST-34, (9-ethyl-9H-carbazol-3-yl)(4-methylnaphthalen-1-yl)methanone]
[1]; Homo sapiens, T98G, 72 h
  EC50: 0.077 µM

## COc1ccc(C(=O)c2c(C)n(CCN3CCOCC3)c3cc(C)ccc23)cc1 [ST-19]
[1]; Homo sapiens, T98G, 72 h
  EC50: 7.4 µM

## Cc1ccc(C(=O)c2c(C)n(CC(F)(F)F)c3ccccc23)c2ccccc12 [ST-29]
[3]
  cross-activation of human CB2 receptors (receptor internalization): engage CB2 receptors
[2]
  GTPγS binding: increase GTP[…]S binding
[1]; Homo sapiens, T98G, 72 h
  EC50: 1 µM

## Cc1ccc(C(=O)n2c3ccccc3c3ccccc32)c2ccccc12 [ST-64]
[1]; [10]
  EC50: 1.87 µM

## COc1ccc2c(c1)c(C(=O)N1CCCC(c3nnc4ccccn34)C1)c(C)n2C (stereo not shown) [ST-41]
[1]; [9]
  EC50 (μM): inactive

## COc1ccc2c(c1)c(C(=O)c1ccc(C)c3ccccc13)c(C)n2CCN1CCOCC1 [ST-21]
[1]; Homo sapiens, T98G, 72 h
  EC50: 29 µM

## Cc1ccc(C(=O)c2c(C)n(CCN3CCOCC3)c3cc(Cl)cc(Cl)c23)c2ccccc12 [ST-27]
[1]; Homo sapiens, T98G, 72 h
  EC50: 0.409 µM

## CCCCCc1cc(O)c2c(c1)OC(C)(C)[C@@H]1CCC(C)=C[C@@H]21 [THC, Δ^9-THC]
[4]
  potencies and efficacies at killing these cells: inconsistent potencies and efficacies

## COc1ccc2c(c1)c(C(O)N1CCCC(c3nnc4ccccn34)C1)c(C)n2C (stereo not shown) [ST-42]
[1]; [9]
  EC50 (μM): inactive

## CCn1c2ccccc2c2cc(C(=O)c3ccc(C)cc3)ccc21 [ST-63, (9-ethyl-carbazol-3-yl)(p-methylphenyl)methanone]
[1]; [10]
  EC50: 0.715 µM

## Cc1c(CNN2CCOCC2)nn(C)c1C [ST-49]
[1]; [9]
  EC50 (μM): inactive

## CCCCCn1c2c(c3ccc(OC)cc31)CN(C(=O)c1ccccc1)CC2 [ST-35]
[1]; [10]
  EC50: ~30 µM

## CC(=O)c1c(C)n(CCOc2cccc3ccccc23)c2ccccc12 [ST-45]
[1]; Homo sapiens, T98G, 72 h
  EC50: 30 µM

## CC1=C(CCN2C(=O)COc3ccccc32)c2ccccc2C1C (stereo not shown) [ST-4]
[1]; [9]
  EC50 (μM): inactive

## 5-ethyl-7-methoxy-2-[(4-methylnaphthalen-1-yl)carbonyl]-1H,2H,3H,4H,5H-pyrido[4,3-b]indole [ST-33]
[1]; T98 g cells, cell death, viability after 3 days, read-out: EC50
  EC50: 1.4 µM

## COc1ccc(C(=O)c2c(C)n(CCN3CCOCC3)c3ccccc23)cc1 [ST-17]
[1]; Homo sapiens, T98G, 72 h
  EC50: 24 µM

## CCn1c2ccccc2c2cc(C(=O)N3CCCc4ccccc43)ccc21 [ST-53, (9-ethyl-carbazol-3-yl)(1,2,3,4-tetrahydraquinoline)methanone]
[1]; [10]
  EC50: 0.516 µM

## CCOC(=O)N1CCc2c(c3cc(C(=O)c4ccc(C)c5ccccc45)ccc3n2CC)C1
[1]; Homo sapiens, T98G, 72 h
  EC50: 6 µM

## COc1ccc2c(C(=O)c3ccc(C)c4ccccc34)c(C)n(CCN3CCOCC3)c2c1 [ST-26]
[1]; Homo sapiens, T98G, 72 h
  EC50: 2.5 µM

## Cc1c(C(=O)Cn2cnc3ccccc3c2=O)c2ccccc2n1C [ST-5]
[1]; [9]
  EC50 (μM): inactive

## CCCn1c(C)c(C(=O)c2cccc3ccccc23)c2ccccc21 [ST-15]
[1]; Homo sapiens, T98G, 72 h
  EC50: 1.5 µM

## Cn1cc(C(=O)N2CCCc3ccccc32)c2ccccc21 [ST-40]
[1]; [9]
  EC50 (μM): inactive

## CCn1c2ccccc2c2cc(C(=O)N3CCN(C)CC3)ccc21 [ST-62, (9-ethyl-carbazol-3-yl)(N-methylpiperazine)methanone]
[1]; [9]
  EC50 (μM): inactive

## COCCn1c(C)c(C(=O)N2CCC3(CC2)NC(=O)N(C)C3=O)c2ccccc21 [ST-8]
[1]; Homo sapiens, T98G, 72 h
  EC50: 29 µM

## CC(=O)c1c(C)n(CCCOc2ccccc2)c2ccccc12 [ST-44]
[1]; Homo sapiens, T98G, 72 h
  EC50: > 20 µM

## O=C1CCCc2c1c1ccccc1n2Cc1ccccc1 [ST-7]
[1]; [9]
  EC50 (μM): inactive

## CCN1C(=O)/C(=N\NC(=O)c2cccc3ccccc23)c2ccccc21 [ST-37]
[1]; Homo sapiens, T98G, 72 h
  EC50: 5.6 µM

## CCn1c(C)c(C(=O)c2cccc3ccccc23)c2ccccc21 [ST-13]
[1]; Homo sapiens, T98G, 72 h
  EC50: 7.9 µM

## Cc1ccc(C(=O)c2c(C)n(C3CC3)c3ccccc23)c2ccccc12 [ST-30]
[1]; Homo sapiens, T98G, 72 h
  EC50: 1 µM

## CCCn1c2ccccc2c2cc(C(=O)c3ccc(C)c4ccccc34)ccc21 [ST-58, (9-propyl-carbazol-3-yl)(4-methyl-naphthyl)methanone]
[1]; [9]
  EC50 (μM): inactive

## Cc1ccc(C(=O)c2c(C)n(CCN3CCOCC3)c3ccc(Cl)cc23)c2ccccc12 [ST-22]
[1]; Homo sapiens, T98G, 72 h
  EC50: 5.4 µM

## Cc1c(C(=O)C(F)(F)F)c2ccccc2n1CC(=O)NCc1ccccc1 [ST-6]
[1]; [9]
  EC50 (μM): inactive

## CC(=O)c1c(C)n(CCOc2ccccc2)c2ccccc12 [ST-2]
[1]; Homo sapiens, T98G, 72 h
  EC50: 21 µM

## Cc1ccc(C(=O)c2c(C)n(CCN3CCOCC3)c3ccccc23)c2ccccc12 [ST-48]
[3]
  cross-activation of human CB2 receptors (receptor internalization): engage CB2 receptors
[1]; Homo sapiens, T98G, 72 h
  EC50: 6.7 µM
[5]
  cross-activation of human CB1 receptors (receptor internalization): engage CB1 receptors

## CCCCCn1c2ccccc2c2cc(C(=O)N3CCCCC3)ccc21 [ST-32]
[1]; Homo sapiens, T98G, 72 h
  EC50: 6.2 µM

## CCCCCCC(C)(C)c1ccc([C@@H]2C[C@H](O)CC[C@H]2CCCO)c(O)c1 [CP55940, CP55,940]
[6]
  competition for WIN-2 binding: did not compete
[4]
  potencies and efficacies at killing these cells: inconsistent potencies and efficacies

## Cc1c(C(=O)c2cccc3ccccc23)c2ccccc2n1C [ST-12]
[1]; Homo sapiens, T98G, 72 h
  EC50: 3.1 µM

## COCCn1cc(C(=O)N2CCCC(CN(C)C)C2)c2ccccc21 (stereo not shown) [ST-9]
[1]; [9]
  EC50 (μM): inactive

## Cc1c(C(=O)c2cccc3ccccc23)c2cccc3c2n1[C@@H](CN1CCOCC1)CO3 [ST-1, WIN55212-2]
[7]
  excitatory transmission: inhibit excitatory transmission
[8]
  [35S]-GTPγS binding: increase [^35S]-GTPγS binding
[6]
  binding affinity: nanomolar affinity
[1]; Homo sapiens, T98G, 72 h
  EC50: 2.1 µM
[4]; Homo sapiens, range over the three cell lines (FIG. 1), read-out: potency at killing T98 g, MDA231 and sknmc cells
  EC50: 1.5 to 2.9 µM
[4]; rank order of cell lines
  toxic efficacy: T98 g>MDA>sknmc

## Cc1ccc(C(=O)c2c(C)n(CCN3CCOCC3)c3ncccc23)c2ccccc12 [ST-23]
[2]
  GTPγS binding: increase GTP[…]S binding
[1]; Homo sapiens, T98G, 72 h
  EC50: 3.5 µM
[5]
  cross-activation of human CB1 receptors (receptor internalization): engage CB1 receptors

## CCCCCn1cc(C(=O)c2cccc3ccccc23)cc1-c1cc(C)cc(O)c1 [ST-16]
[1]; [9]
  EC50 (μM): inactive

## CCn1c2c(c3ccccc31)CN(S(=O)(=O)c1ccc(Cl)c3nonc13)CC2 [ST-59]
[1]; [9]
  EC50 (μM): inactive

## Cc1ccc(C(=O)c2c(C(F)(F)F)n(CCN3CCOCC3)c3ccccc23)c2ccccc12 [ST-28]
[1]; Homo sapiens, T98G, 72 h
  EC50: 2.7 µM

## Cc1nccn1CC1CCc2c(c3ccccc3n2C)C1=O (stereo not shown) [ST-3]
[1]; [9]
  EC50 (μM): inactive

## Cc1ccc(C(=O)c2c(C)n(CCN3CCOCC3)c3cnccc23)c2ccccc12 [ST-31]
[1]; Homo sapiens, T98G, 72 h
  EC50: 20 µM

## O=C(c1cccc2ccccc12)c1cn(CCN2CCOCC2)c2ccccc12 [ST-20]
[1]; Homo sapiens, T98G, 72 h
  EC50: 23 µM
